Results taken from paper PMC6637260 (2019).

How the values were obtained:
[1] = system: Tel22 (DNA, G4) AGGGTTAGGGTTAGGGTTAGGG; assay: ITC; settings: 10 mM Tris, 1 mM EDTA, pH 7.4, 20 °C
[2] = system: F21T (DNA, G4) GGGTTAGGGTTAGGGTTAGGG; assay: FRET melting; settings: 100 mM KCl; 10 mM lithium cacodylate pH 7.2; 1 µM TPE-Im, 200 nM F21T (5:1)
[3] = system: ds43 (DNA, duplex) CGTCACGTAAATCGGTTAACAAATGGCTTTCGAAGCTAGCTTC/GAAGCTAGCTTCGAAAGCCATTTGTTAACCGATTTACGTGACG; assay: FRET melting competition; settings: 100 mM KCl; 10 mM lithium cacodylate pH 7.2; 10 equivalents ds43 lower F21T ΔT1/2 from 19.5 to 7 °C

Ka ([1]; 100 mM KCl): 2.4 (±1.0).10^5 M^-1
Ka ([1]; 100 mM NaCl): 3.2 (±1.1).10^5 M^-1
ΔT1/2 [2]: 19.5 °C
binding [3]: weak
Compound: C[n+]1ccn(-c2ccc(C(=C(c3ccc(-n4cc[n+](C)c4)cc3)c3ccc(-n4cc[n+](C)c4)cc3)c3ccc(-n4cc[n+](C)c4)cc3)cc2)c1
